Read-outs that look alike come from different tables or passages of the source.
Tests used:
[1] = biological target: human GABAA α2β2γ1 receptor (Homo sapiens (Human), UniProt P47869+Q8N1C3); experiment: Radioligand binding assay, competition for [3H]RO7239181, γ1-containing GABAA subtypes; details: Ki h-GABAA α2β2γ1, membranes of HEK293F cells, [3H]RO7239181 20-30 nM
[2] = biological target: human GABAA α1β3γ2 receptor (Homo sapiens (Human), UniProt P14867+P18507); experiment: Radioligand binding assay, competition for [3H]Flumazenil, γ2-containing GABAA subtypes; details: for γ2/γ1 Selectivity Ratio: Ki α1β3γ2 (nM)/Ki α2β2γ1 (nM); for LogSel: Log[Ki α1β3γ2 (nM)/Ki α2β2γ1 (nM)]
How it was run: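 Competition against [3H]Flumazenil binding in HEK293F cells transiently expressing human α1β3γ2 receptors, pellets resuspended in mannitol buffer pH 7,2-7,4. Incubated to equilibrium 1 hour at 4° C, filtered and washed with ice-cold 50 mM Tris pH 7.5, bound radioactivity by liquid scintillation counting. Ki values are means of two determinations.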

[3] = HEK293F cells, [3H]Flumazenil 1 nM, Table 1, read-out: Ki h-GABAA α1β3γ2

Row | Structure (SMILES) | Ki ([1]; Table 1) [nM] | Ki ([1]; Table 2) [nM] | Ki [2] [nM] | γ2/γ1 Selectivity Ratio ([2]; Table 1) | LogSel ([2]; Table 1) | Ki [2, 3] [nM]
1 | Cc1nnc2n1-c1sc3c(c1C(c1c(F)cccc1F)=N[C@H]2C)CC[C@@H](O)CC3 [Example 27, (7S,14R)-9-(2,6-difluorophenyl)-3,7-dimethyl-18-thia-2,4,5,8-tetrazatetracyclo[8.8.0.02,6.011,17]octadeca-1(10),3,5,8,11(17)-pentaen-14-ol] | 42.8 | 42.8 | 11400 | 266.4 | 2.43 | –
2 | Cc1nnc2n1-c1sc3c(c1C(c1c(F)cccc1F)=N[C@H]2C)CCCC[C@H]3F (single isomer, unassigned) [Example 11] | 17.4 | 17.5 | 825 | 47.3 | 1.67 | –
3 | C[C@@H]1N=C(c2c(F)cccc2F)c2c(sc3c2COCCC3)-n2nc(C(=O)NCC3(O)CC3)nc21 [Example 62, (7S)-9-(2,6-difluorophenyl)-N-[(1-hydroxycyclopropyl)methyl]-7-methyl-13-oxa-18-thia-2,3,5,8-tetrazatetracyclo[8.8.0.02,6.011,17]octadeca-1(10),3,5,8,11(17)-pentaene-4-carboxamide] | 24.6 | 24.5 | – | 200.3 | 2.30 | 4920
4 | CCNC(=O)c1nc2n(n1)-c1sc3c(c1C(c1c(F)cccc1F)=N[C@H]2C)COCCO3 [Example 37, (7S)-9-(2,6-difluorophenyl)-N-ethyl-7-methyl-13,16-dioxa-18-thia-2,3,5,8-tetrazatetracyclo[8.8.0.02,6.011,17]octadeca-1(10),3,5,8,11(17)-pentaene-4-carboxamide] | 33.7 | 33.7 | – | 121.1 | 2.08 | 4080
5 | C[C@@H]1N=C(c2c(F)cccc2F)c2c(sc3c2COC[C@H](C)O3)-n2nc(C(=O)N3CC(OC(C)(C)C)C3)nc21 [Example 41, (3-tert-butoxyazetidin-1-yl)-[(7S,15S)-9-(2,6-difluorophenyl)-7,15-dimethyl-13,16-dioxa-18-thia-2,3,5,8-tetrazatetracyclo[8.8.0.02,6.011,17]octadeca-1(10),3,5,8,11(17)-pentaen-4-yl]methanone] | 65.1 | 65.1 | – | 188.2 | 2.27 | 12300
6 | C[C@@H]1N=C(c2c(F)cccc2F)c2c(sc3c2COC[C@H](C)O3)-n2nc(C(=O)NCCO)nc21 [Example 53, (7S,15S)-9-(2,6-difluorophenyl)-N-(2-hydroxyethyl)-7,15-dimethyl-13,16-dioxa-18-thia-2,3,5,8-tetrazatetracyclo[8.8.0.02,6.011,17]octadeca-1(10),3,5,8,11(17)-pentaene-4-carboxamide] | 95.3 | 95.3 | – | 119.7 | 2.08 | 11400
7 | Cc1nnc2n1-c1sc3c(c1C(c1c(F)cccc1F)=N[C@H]2C)CCCCC3O (mixture of isomers) [Example 9, (7S,16RS)-9-(2,6-difluorophenyl)-3,7-dimethyl-18-thia-2,4,5,8-tetrazatetracyclo[8.8.0.02,6.011,17]octadeca-1(10),3,5,8,11(17)-pentaen-16-ol] | 14.3 | 14.3 | 1130 | 79.4 | 1.90 | –
8 | CCc1nc2n(n1)-c1sc3c(c1C(c1c(F)cccc1F)=N[C@H]2C)COC[C@H](C)O3 [Example 49, (7S,15S)-9-(2,6-difluorophenyl)-4-ethyl-7,15-dimethyl-13,16-dioxa-18-thia-2,3,5,8-tetrazatetracyclo[8.8.0.02,6.011,17]octadeca-1(10),3,5,8,11(17)-pentaene] | 52.5 | 52.5 | 8750 | 166.8 | 2.22 | –
9 | C[C@@H]1N=C(c2c(F)cccc2F)c2c(sc3c2COCCO3)-n2nc(C(=O)NC3CC3)nc21 [Example 36] | 56.3 | 56.3 | – | 72.6 | 1.86 | 4080
10 | C[C@@H]1N=C(c2c(F)cccc2F)c2c(sc3c2CCCCC3)-n2c(C3CC3)nnc21 [Example 3, (7S)-3-cyclopropyl-9-(2,6-difluorophenyl)-7-methyl-18-thia-2,4,5,8-tetrazatetracyclo[8.8.0.02,6.011,17]octadeca-1(10),3,5,8,11(17)-pentaene] | 26.6 | 26.7 | 1360 | 51.0 | 1.71 | –
11 | CCc1nnc2n1-c1sc3c(c1C(c1c(F)cccc1F)=N[C@H]2C)COCCO3 [Example 42, (7S)-9-(2,6-difluorophenyl)-3-ethyl-7-methyl-13,16-dioxa-18-thia-2,4,5,8-tetrazatetracyclo[8.8.0.02,6.011,17]octadeca-1(10),3,5,8,11(17)-pentaene] | 31.7 | 31.7 | 4270 | 134.9 | 2.13 | –
12 | C[C@@H]1N=C(c2c(F)cccc2F)c2c(sc3c2COCCO3)-n2c(C3CC3)nnc21 [Example 43, (7S)-3-cyclopropyl-9-(2,6-difluorophenyl)-7-methyl-13,16-dioxa-18-thia-2,4,5,8-tetrazatetracyclo[8.8.0.02,6.011,17]octadeca-1(10),3,5,8,11(17)-pentaene] | 23.6 | 23.6 | 5360 | 227.2 | 2.36 | –
13 | C[C@@H]1N=C(c2c(F)cccc2F)c2c(sc3c2CCCCC3)-n2ccc(=O)nc21 [Example 7, (8S)-10-(2,6-difluorophenyl)-8-methyl-19-thia-2,6,9-triazatetracyclo[9.8.0.02,7.012,18]nonadeca-1(11),3,6,9,12(18)-pentaen-5-one] | 37.5 | 37.5 | 7690 | 205.1 | 2.31 | –
14 | [2H]C1([2H])OCc2c(sc3c2C(c2c(F)cccc2F)=N[C@@H](C)c2nc(C(=O)N4CCC4)nn2-3)OC1([2H])[2H] [Example 23, azetidin-1-yl-[(7S)-14,14,15,15-tetradeuterio-9-(2,6-difluorophenyl)-7-methyl-13,16-dioxa-18-thia-2,3,5,8-tetrazatetracyclo[8.8.0.02,6.011,17]octadeca-1(10),3,5,8,11(17)-pentaen-4-yl]methanone] | 6.3 | 6.3 | – | 1329.5 | 3.12 | 8420
15 | CC(C)c1nnc2n1-c1sc3c(c1C(c1c(F)cccc1F)=N[C@H]2C)COCCO3 [Example 44, (7S)-9-(2,6-difluorophenyl)-3-isopropyl-7-methyl-13,16-dioxa-18-thia-2,4,5,8-tetrazatetracyclo[8.8.0.02,6.011,17]octadeca-1(10),3,5,8,11(17)-pentaene] | 29 | 29 | 6390 | 220.4 | 2.34 | –
16 | C[C@@H]1N=C(c2c(F)cccc2F)c2c(sc3c2COCCO3)-n2nc(C(=O)N3CCC3)nc21 [Example 22, azetidin-1-yl-[(7S)-9-(2,6-difluorophenyl)-7-methyl-13,16-dioxa-18-thia-2,3,5,8-tetrazatetracyclo[8.8.0.02,6.011,17]octadeca-1(10),3,5,8,11(17)-pentaen-4-yl]methanone] | 10 | 10 | – | 304.3 | 2.48 | 3040

Source: patent publication US20240294543A1, “CYCLOHEPTA-THIENO-DIAZEPINE DERIVATIVES AS GABA A GAMMA1 PAM” (Hoffmann-La Roche Inc., priority 2021, published 2024)
